The text below walks through data of US11091781B2, “Carbon fixation systems and methods” (priority 2015, dated 2021).

Data set [1] relates to R. eutropha. Put plainly: Spot assay of R. eutropha in the presence of Co^2+. As to conditions: estimated by comparison at 1/100 dilution, FIG. 18, read-out: half maximal inhibitory concentration, IC50 (concentration of Co^2+ toxic to R. eutropha). Format: cell-based, Ralstonia eutropha. As for the experimental part: (§1) The procedure for spot assays was performed by diluting 100 μL of culture grown under different conditions by 1:10 in fresh minimal medium, which was vortexed. Three to four serial 10-fold dilutions were made and 2 μL of each dilution was spotted on rich broth agar plates and allowed to dry. Plates were typically grown for 2 days at 30° C. before imaging. The half maximal inhibitory concentration (IC50) was estimated based on the comparison at 1/100 dilution. The areas of colonies at certain conditions were then compared with that of control samples.
FIG. 17 presents, cyclic voltammograms of Co^2+ in the phosphate buffer (pH=7), a pre-wave to the catalytic water-splitting current corresponds to the oxidation of Co^2+ to Co^3+, which drives deposition of the catalyst. […] As noted previously, the self-healing property of CoPi alloy is derived from this interplay of the potential at which OER occurs vs. the potential at which the catalyst deposits. In concert, the Co—P and CoPi catalysts maintain extremely low concentrations of Co^2+ in solution through activity derived from the self-healing process. Inductively coupled plasma mass spectrometry (ICP-MS) analysis of a Co-P|CoPi catalysts system (Eappl=2.2 V) confirm that sub-μM levels of Co^2+ are present in solution after 24 h. […]

For data set [2], the system named is R. eutropha. It is filed as cell-based, Ralstonia eutropha. As to conditions: spot assay at different isopropanol concentrations, FIG. 25. As for the experimental part: as §1
FIG. 25 is a photograph of cell cultures taken for different isopropanol concentration.

The subject of data set [3] is H16 and ROS-resistant BC4 strains of R. eutropha. Put plainly: Spot assay of ROS tolerance with paraquat as ROS-inducer. It is filed as cell-based, Ralstonia eutropha. As to conditions: BC4 vs wild-type H16, FIG. 26. As for the experimental part:
as §1
A ROS-resistant variant of R. eutropha, evolved from a reactor including a stainless steel CoPi water-splitting electrode pair after 11 consecutive days of operation at an applied voltage potential of 2.3 V with a H2O2 generation rate of ˜0.6 μM/min. […] However, there was minimal difference noted in ηelec for the current reactor systems using the Co-P|CoPi electrode pairs, confirming minimal concentrations of ROS in the reactors. Of course, it should be understood that BC4 may be used in any reactor system, and may also be beneficial for use in helping systems achieve a high ηelec where ROS are present in larger concentrations.

The target of data set [4] is membrane-bound hydrogenases in R. eutropha (Cupriavidus necator, UniProt P31891). As to conditions: H2 as substrate; cited from earlier work.
Chain of membrane-bound hydrogenases in R. eutropha (P31891 1-603 limits assumed): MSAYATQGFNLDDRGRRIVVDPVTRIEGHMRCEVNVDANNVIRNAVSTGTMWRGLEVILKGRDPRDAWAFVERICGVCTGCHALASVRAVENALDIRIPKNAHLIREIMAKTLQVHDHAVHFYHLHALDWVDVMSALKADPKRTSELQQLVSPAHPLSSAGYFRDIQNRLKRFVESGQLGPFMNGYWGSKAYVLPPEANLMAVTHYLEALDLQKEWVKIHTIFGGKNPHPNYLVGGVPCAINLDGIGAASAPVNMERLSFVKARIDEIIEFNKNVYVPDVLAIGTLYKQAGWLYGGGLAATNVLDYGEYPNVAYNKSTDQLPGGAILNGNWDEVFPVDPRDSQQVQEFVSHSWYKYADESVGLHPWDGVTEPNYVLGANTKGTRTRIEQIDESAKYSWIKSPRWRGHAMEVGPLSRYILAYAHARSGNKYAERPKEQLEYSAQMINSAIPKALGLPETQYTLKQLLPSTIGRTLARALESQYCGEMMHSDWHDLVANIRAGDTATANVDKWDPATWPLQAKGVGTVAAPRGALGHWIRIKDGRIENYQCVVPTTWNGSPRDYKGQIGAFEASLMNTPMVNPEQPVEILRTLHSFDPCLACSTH
Chain of membrane-bound hydrogenases in R. eutropha (P31892 44-360 partner): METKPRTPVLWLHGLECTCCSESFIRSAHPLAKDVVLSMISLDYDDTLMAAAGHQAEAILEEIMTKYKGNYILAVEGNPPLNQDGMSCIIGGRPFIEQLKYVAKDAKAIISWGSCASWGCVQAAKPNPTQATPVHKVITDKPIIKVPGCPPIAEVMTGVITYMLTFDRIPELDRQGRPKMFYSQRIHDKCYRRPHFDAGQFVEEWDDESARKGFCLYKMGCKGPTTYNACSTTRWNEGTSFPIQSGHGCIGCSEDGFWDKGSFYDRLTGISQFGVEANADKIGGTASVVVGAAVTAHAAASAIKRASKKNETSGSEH

Regarding `[Co+2]` [Co^2+], the IC50 in the data set on R. eutropha [1] is around 25 µM.

On to `CC(C)O` [isopropanol], for which, in the data set with R. eutropha [2], the “tolerance of R. eutropha towards isopropanol” value is listed as “demonstrates tolerance”. Regarding `C[n+]1ccc(-c2cc[n+](C)cc2)cc1` [paraquat], in data set [3], the “IC50 of paraquat for BC4 compared with wild type” value is on record as “almost one order of magnitude higher than that of wild type”. For the compound `[HH]` [H2, hydrogen], the Michaelis constant entry in data set [4] was “about 6 μM”.
